Assay results as given in patent publication US6359008B1, “Acylated aminoacids for increasing the uptake of selected substances by organisms” (Lovesgrove Research Limited, priority 1998, dated 2002).

Columns and labels:
[1] = Heat stability of the compound; format: physicochemical
Excerpt: The high polar head group appears to provide the bio-activity of the compound without having to incorporate a phosphonic group therein.

[2] = test system: Rainbow Trout; assay: Field trial of Corbinol as pigment adsorption enhancer in fish feed; format: in vivo
Experimental: A field trial was conducted at a fish farm facility adjacent to the Rheidol hydroelectric station to establish a preliminary indication of the efficacy of Corbinol comprising 75 g palmitoylaminoproprionic acid with 925 g of silica talc carrier as a pigment adsorption enhancer. Approximately 250 Rainbow Trout were divided into two groups and held in separate tanks each 4 m×4 m×1 m. The fish were hand fed for a duration of 4 weeks, the diets for the two groups being: Control: Mainstream Trout Hi-Performance 40 Treated: Mainstream Trout Hi-Performance+Corbinol (1 kg/tonne) At the end of the trial 100 farm fish from each group were removed and individually weighed. Equal levels of flesh samples were bulked together forming 10 groups of 10 for both the control and treated diets. HPLC analysis was conducted using a Merck-Hitachi L-4250 UV-Vis detector following an isocratic method referred to in a Roche Ltd publication.

heat stable to [1]: approximately 130 °C
Compound: CCCCCCCCCCCCCCCC(=O)NC(C)C(=O)O (centres unmarked) [2-palmitoylaminoproprionic acid]
uptake of selected compounds, in particular pigments, in organisms such as fish [2]: increase the uptake of selected compounds
